Measured values as given in patent publication US20220152031A1, “PYRIDAZINONES AND METHODS OF USE THEREOF” (Goldfinch Bio, Inc., priority 2019, published 2022).
Read-outs that look alike come from different tables or passages of the source.

Tests used:
TRPC4 = target: T1, TRPC4 (Homo sapiens, UniProt Q9UBN4); assay: TRPC4 activity assay (FLIPR calcium fluorescence, HEK-TREx hTRPC4 cells); type: cell-based; conditions: Table 5, HEK-TREx hTRPC4; read-out: TRPC4 FLIPR IC50
T1 construct: expressed in transfected cells
T1 sequence (Q9UBN4 1-982 isoform Q9UBN4-5): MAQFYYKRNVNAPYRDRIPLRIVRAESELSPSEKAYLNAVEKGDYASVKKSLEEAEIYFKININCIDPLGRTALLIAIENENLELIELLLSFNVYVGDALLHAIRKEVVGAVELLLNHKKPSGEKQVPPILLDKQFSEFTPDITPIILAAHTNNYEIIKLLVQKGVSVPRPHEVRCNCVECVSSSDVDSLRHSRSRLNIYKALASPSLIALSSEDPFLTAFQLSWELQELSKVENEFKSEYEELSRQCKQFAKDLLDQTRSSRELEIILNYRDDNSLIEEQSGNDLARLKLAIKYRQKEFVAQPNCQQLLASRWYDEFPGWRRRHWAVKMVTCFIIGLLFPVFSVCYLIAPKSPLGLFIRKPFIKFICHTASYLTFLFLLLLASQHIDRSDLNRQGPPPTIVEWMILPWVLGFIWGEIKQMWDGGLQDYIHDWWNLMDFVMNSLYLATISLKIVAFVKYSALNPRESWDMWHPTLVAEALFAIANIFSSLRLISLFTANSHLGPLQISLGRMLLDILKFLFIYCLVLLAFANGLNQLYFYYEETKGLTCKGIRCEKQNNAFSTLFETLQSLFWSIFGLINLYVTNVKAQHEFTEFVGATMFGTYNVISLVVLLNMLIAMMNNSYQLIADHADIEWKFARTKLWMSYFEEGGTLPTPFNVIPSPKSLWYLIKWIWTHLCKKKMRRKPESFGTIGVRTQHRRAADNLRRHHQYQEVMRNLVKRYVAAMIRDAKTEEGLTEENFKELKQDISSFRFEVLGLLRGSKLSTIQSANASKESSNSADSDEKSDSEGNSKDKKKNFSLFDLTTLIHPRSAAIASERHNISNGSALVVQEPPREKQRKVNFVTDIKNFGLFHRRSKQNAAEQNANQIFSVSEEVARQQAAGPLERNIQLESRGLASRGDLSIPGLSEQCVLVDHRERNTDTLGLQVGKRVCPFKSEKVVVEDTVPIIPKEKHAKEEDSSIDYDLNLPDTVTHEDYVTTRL
Method: (§1) ICLN-1694 cells (HEK-TREx hTRPC4) expressing TRPC4 were generated as follows. Commercially available HekTrex-293 cells were seeded at 0.7×10^6 cells/well in a 1×6-well plate 24 hrs prior to transfection using 2 mL cell growth media containing no antibiotics (lx DMEM/high glucose (Hyclone #SH30022.02); 10% fetal bovine serum (Sigma) 2 mM sodium pyruvate, 10 mM HEPES). […] On day 2, 2 μg of plasmid DNA plus 6 μl of Xtreme-GENE HP reagent in Optimem (200 μl total volume) was prepared and incubated for 15 min at room temperature. This plasmid solution was then gently overlayed dropwise onto each well and the plate was gently swirled to mix complex with the media for approximately 30 seconds. Transfected cells were incubated at 37° C. in a 10% CO2 incubator for 24 hrs. The transfected cells were harvested and transferred into 2×150 mm dishes containing cell growth media with no antibiotics at 37° C.
(§2) The next day selection was initiated to generate a stable pool by adding cell growth media containing 150 μg/mL Hygromycin and 5 μg/mL Blasticidin and cells were allowed to grow. Media with the selection agent was changed every 1-2 days as needed to remove dead cells. After 7 days, the hygromycin concentration was reduced to 75 μg/mL and cells growth was allowed to continue.
(§3) Single clones were selected as follows. The stable pool was diluted to 10 cells/mL and seeded (100 μl/well) into 24×96 well plates (˜1 cell/well) and allowed to grow for 7 days in cell growth media. Fresh media (100 μl) was added and the cells allowed to grow for another 1-2 weeks and then stored frozen or used immediately.
(§4) 10-point dose response curves were generated using the Echo-550 acoustic dispenser. Compound source plates were made by serially diluting compound stocks to create 10 mM, 1 mM, and 0.1 mM solutions in DMSO into Echo-certified LDV plates. The Echo then serially spotted 100% DMSO stock solutions into source dose response plates to generate a 4-fold dilution scheme. 100% DMSO was added to the spotted dose response plates to bring the final volume to 5 μl. 300 nl of the dose response stock plate was then spotted into pre-incubation and stimulation assay plates. 50 μl of pre-incubation buffer and 100 μl of stimulation buffer was then added to the plates resulting in a final assay test concentration range of 30 μM to 0.0001 μM with a final DMSO concentration of 0.3%.
ICLN-1694 cells (HEK-TREx hTRPC4) were plated onto 384 well, black pdl-coated microplates and maintained in cell growth media supplemented with 1 μg/mL tetracycline the day prior to use for experiments. TRPC4 expression was induced by the application of 1 μg/mL tetracycline at the time of plating. […] Cells were incubated at room temperature, protected from light, for 60-90 minutes. After the incubation period, the dye was removed and replaced with 10 μl of EBSS. Cell, pre-incubation and stimulation plates were loaded onto the FLIPR-II and the assay was initiated. The FLIPR measured a 10 second baseline and then added 10 μl of 2× compounds (or controls). Changes in fluorescence were monitored for an additional 5 minutes. After a 5 minute pre-incubation, 20 μl of 2× Englerin A (with 1× compound or controls) was added to the cell plate. The final Engerlin A stimulation concentration in the assay was 100 nM. After the Englerin A addition, changes in fluorescence were monitored for an additional 5 minutes.
Compound modulation of TRPC4 calcium response was determined as follows. After the Englerin A, fluorescence was monitored for a 5-minute period. The maximum relative fluorescence response (minus the control response of 1 μM of an internal control compound known to maximally block TRPC4 calcium response, the “REF INHIB” in the formula below) was captured and exported from the FLIPR.
(§5) Compound effect is calculated as % inhibition using the following formula: […]
(§6) wherein “RFU” is the relative fluorescent units.

TRPC5 = target: T2, TRPC5 (Homo sapiens, UniProt Q9UL62); assay: TRPC5 activity assay (FLIPR calcium fluorescence, HEK-TREx hTRPC5 cells); type: cell-based
T2 construct: expressed in transfected cells
T2 sequence (Q9UL62 1-973): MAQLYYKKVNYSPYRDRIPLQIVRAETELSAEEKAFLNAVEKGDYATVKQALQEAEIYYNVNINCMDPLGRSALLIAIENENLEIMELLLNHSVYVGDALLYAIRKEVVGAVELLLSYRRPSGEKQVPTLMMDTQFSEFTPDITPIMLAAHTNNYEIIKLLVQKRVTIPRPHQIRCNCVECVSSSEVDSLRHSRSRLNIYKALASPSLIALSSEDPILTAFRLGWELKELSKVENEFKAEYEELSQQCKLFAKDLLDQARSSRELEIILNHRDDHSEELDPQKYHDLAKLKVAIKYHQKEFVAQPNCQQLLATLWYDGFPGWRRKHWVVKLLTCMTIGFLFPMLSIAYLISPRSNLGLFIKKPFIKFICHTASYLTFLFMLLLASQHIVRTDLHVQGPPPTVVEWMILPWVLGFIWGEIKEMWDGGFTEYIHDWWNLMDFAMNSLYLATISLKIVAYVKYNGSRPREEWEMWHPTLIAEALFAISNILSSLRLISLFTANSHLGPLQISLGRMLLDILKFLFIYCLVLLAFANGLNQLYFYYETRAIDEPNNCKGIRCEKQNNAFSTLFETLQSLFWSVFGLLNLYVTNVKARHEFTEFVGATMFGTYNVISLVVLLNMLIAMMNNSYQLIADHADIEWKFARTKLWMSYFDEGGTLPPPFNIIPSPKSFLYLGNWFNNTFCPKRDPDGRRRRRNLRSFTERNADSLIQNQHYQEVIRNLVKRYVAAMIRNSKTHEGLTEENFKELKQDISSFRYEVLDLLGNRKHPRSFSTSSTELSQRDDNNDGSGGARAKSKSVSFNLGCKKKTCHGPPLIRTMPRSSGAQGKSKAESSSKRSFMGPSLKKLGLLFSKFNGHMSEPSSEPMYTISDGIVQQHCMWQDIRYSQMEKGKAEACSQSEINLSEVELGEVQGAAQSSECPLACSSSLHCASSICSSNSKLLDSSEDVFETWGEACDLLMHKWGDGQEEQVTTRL
Method: as §1, with “ICLN-1633” for “ICLN-1694”, “hTRPC5)” for “hTRPC4)”, “TRPC5” for “TRPC4”
as §2, §3
as §4, with “Echo certified” for “Echo-certified”
Human ICLN-1633 cells expressing were plated onto 384 well, black PDL-coated microplates and maintained in TRPC5 growth media the day prior to use for experiments. TRPC5 expression was induced by the application of 1 μg/mL tetracycline at the time of plating. […] Cells are incubated at room temperature, protected from light, for 60-90 minutes. After the incubation period, the dye is removed and replaced with 10 μl of EBSS. Cell, pre-incubation and stimulation plates are loaded onto the FLIPR-II and the assay is initiated. The FLIPR measures a 10 second baseline and then adds 10 μl of 2× compounds (or controls). Changes in fluorescence are monitored for an additional 5 minutes. After the 5 minute pre-incubation, 20 μl of 2× Riluzole (with 1× compound or controls) is added to the cell plate. The final Riluzole stimulation concentration in the assay is 30 μM. After the Riluzole addition, changes in fluorescence are monitored for an additional 5 minutes.
Compound modulation of TRPC5 calcium response was determined as follows. After the Englerin A, fluorescence was monitored for a 5-minute period. The maximum relative fluorescence response (minus the control response of 1 μM of an internal control compound known to maximally block TRPC5 calcium response, the “REF INHIB” in the formula below) was captured and exported from the FLIPR.
as §5, §6

[1] = HEK-TREx hTRPC5 cells, FLIPR, 30 μM Riluzole stimulation, read-out: TRPC5

SMILES	IC50 (TRPC5; [1])	further results
CC(c1ccc(F)cc1C(F)(F)F)N1C[C@@H](C)N(c2cn[nH]c(=O)c2Cl)CC1=O (single isomer, unassigned) [MD]		IC50 (TRPC4): 0.01 to 1000 nM
O=c1[nH]ncc(N2CCc3c(nc(CO)nc3Oc3ccc(F)cc3C(F)F)C2)c1Cl [Compound 134, 4-chloro-5-[4-[2-(difluoromethyl)-4-fluorophenoxy]-2-(hydroxymethyl)-5H,6H,7H,8H-pyrido[3,4-d]pyrimidin-7-yl]-2,3-dihydropyridazin-3-one]	< 50 nM	
O=c1[nH]ncc(N2CCc3c(ncnc3N(CCO)c3ccc(F)cc3C(F)(F)F)C2)c1Cl [Compound 136, 4-Chloro-5-(4-[[4-fluoro-2-(trifluoromethyl)phenyl](2-hydroxyethyl)amino]-5H,6H,7H,8H-pyrido[3,4-d]pyrimidin-7-yl)-2,3-dihydropyridazin-3-one]	< 50 nM	
Cn1c2c(c(Oc3ccc(F)cc3C(F)(F)F)nc1=O)CCN(c1cn[nH]c(=O)c1Cl)C2 [Compound 138, 4-Chloro-5-[4-[4-fluoro-2-(trifluoromethyl)phenoxy]-1-methyl-2-oxo-1H,2H,5H,6H,7H,8H-pyrido[3,4-d]pyrimidin-7-yl]-2,3-dihydropyridazin-3-one]	50 to 500 nM	
COc1nc2c(c(Oc3ccc(F)cc3C(F)(F)F)n1)CCN(c1cn[nH]c(=O)c1Cl)C2 [Compound 139, 4-Chloro-5-[4-[4-fluoro-2-(trifluoromethyl)phenoxy]-2-methoxy-5H,6H,7H,8H-pyrido[3,4-d]pyrimidin-7-yl]-2,3-dihydropyridazin-3-one]	50 to 500 nM	
O=c1[nH]ncc(N2CCc3c(Oc4ccc(F)cc4C(F)(F)F)ccnc3C2)c1Cl [Compound 140, 4-chloro-5-[4-[4-fluoro-2-(trifluoromethyl)phenoxy]-5,6,7,8-tetrahydro-1,7-naphthyridin-7-yl]-2,3-dihydropyridazin-3-one]	50 to 500 nM	
CCc1ncccc1[C@@H](C)n1nnc2c1CCN(c1cn[nH]c(=O)c1Cl)C2 [MS, 4-chloro-5-[1-[(1R)-1-(2-ethylpyridin-3-yl)ethyl]-1H,4H,5H,6H,7H-[1,2,3]triazolo[4,5-c]pyridin-5-yl]-2,3-dihydropyridazin-3-one]		IC50 (TRPC5; Table 4, HEK-TREx hTRPC5, read-out: TRPC5-FLIPR IC50): 0.01 to 1000 nM; IC50 (TRPC5; Table 7, HEK-TREx hTRPC5, read-out: TRPC5-FLIPR IC50): 0.01 to 1000 nM
